target: T1, human recombinant mGluR5 receptor (Homo sapiens, UniProt P41594); experiment: mGluR5 in vitro functional assay (aequorin cell line, inhibition of glutamate EC80 response); format: cell-based; conditions: Table 1; aequorin cell line expressing human mGluR5, reference agonist glutamate at EC80; obtained in duplicate; read-out: IC50
T1 construct: expressed in transfected cells; expression induced with doxycycline
Experimental: B. mGluR5 In Vitro Functional Assay
The functional assay utilized an aequorin cell line expressing human recombinant mGluR5 receptor, an inducible cell line that expresses the human receptor under the control of a promoter induced by doxycycline.
mGluR5 cells in mid-log phase, grown 18 hours prior to the test in antibiotic-free media supplemented with doxycycline (600 ng/mL), were detached by gentle flushing with PBS-EDTA ([…]). The cells were recovered by centrifugation and resuspended in assay buffer (HBSS, […], 3 ug/mL glutamate-pyruvate transaminase, […] MEM sodium pyruvate, 0.1% BSA protease-free). Cells were incubated at room temperature for at least 4 hours with Coelenterazine h (Molecular Probes). The cell suspension (60 uL) containing the test compound was mixed with a solution of reference agonist (30 uL) at its EC80, following an incubation of 3 min. after the first injection. The resulting emission of light was recorded using a Hamamatsu Functional Drug Screening System 6000 (FDSS 6000). To standardize the emission of recorded light (determination of the “100% signal’) across plates and across different experiments, some of the wells contained 100 uM digitonin or a saturating concentration (20 mM) of ATP. Plates also contained the reference agonist (glutamate) at a concentration equivalent to the EC80 obtained during assay validation. Percentages of inhibition were calculated on the basis of the activation induced by the reference agonist at a concentration equal to the EC80. Dose-response data were analyzed with XLFit (IDBS) software using nonlinear regression applied to a sigmoidal dose-response model.

T1 sequence (P41594 21-1212): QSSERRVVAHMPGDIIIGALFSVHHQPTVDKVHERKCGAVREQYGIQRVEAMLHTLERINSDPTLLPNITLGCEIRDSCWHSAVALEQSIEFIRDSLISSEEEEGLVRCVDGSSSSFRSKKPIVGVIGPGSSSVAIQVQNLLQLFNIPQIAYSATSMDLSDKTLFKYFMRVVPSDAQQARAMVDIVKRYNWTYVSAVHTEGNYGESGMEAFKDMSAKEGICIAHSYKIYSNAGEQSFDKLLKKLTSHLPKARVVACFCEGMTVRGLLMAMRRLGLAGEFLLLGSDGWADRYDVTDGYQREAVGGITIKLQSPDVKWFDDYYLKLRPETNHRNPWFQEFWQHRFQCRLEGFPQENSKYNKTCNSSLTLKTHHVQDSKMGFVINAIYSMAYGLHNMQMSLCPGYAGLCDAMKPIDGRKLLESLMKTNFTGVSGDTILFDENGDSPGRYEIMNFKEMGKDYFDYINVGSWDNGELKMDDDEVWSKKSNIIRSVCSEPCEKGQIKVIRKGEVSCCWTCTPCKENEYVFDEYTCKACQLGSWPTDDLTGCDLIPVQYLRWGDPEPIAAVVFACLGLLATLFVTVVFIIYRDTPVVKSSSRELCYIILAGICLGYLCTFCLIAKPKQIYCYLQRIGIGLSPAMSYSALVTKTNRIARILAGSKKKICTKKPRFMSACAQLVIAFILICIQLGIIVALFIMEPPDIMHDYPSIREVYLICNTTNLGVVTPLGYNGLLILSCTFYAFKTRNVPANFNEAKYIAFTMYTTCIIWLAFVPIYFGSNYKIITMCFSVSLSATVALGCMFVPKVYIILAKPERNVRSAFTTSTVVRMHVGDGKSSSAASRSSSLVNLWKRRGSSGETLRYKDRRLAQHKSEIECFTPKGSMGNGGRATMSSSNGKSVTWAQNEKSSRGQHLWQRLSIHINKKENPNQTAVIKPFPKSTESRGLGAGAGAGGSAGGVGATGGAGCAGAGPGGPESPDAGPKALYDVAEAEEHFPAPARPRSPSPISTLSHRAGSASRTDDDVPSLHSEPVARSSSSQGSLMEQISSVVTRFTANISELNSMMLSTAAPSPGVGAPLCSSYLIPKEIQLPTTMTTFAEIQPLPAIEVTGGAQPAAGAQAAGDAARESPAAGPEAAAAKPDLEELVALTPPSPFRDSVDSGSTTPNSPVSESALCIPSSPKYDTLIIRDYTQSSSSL

`Clc1ccccc1-c1nc2c(o1)CN(c1ccccn1)CC2` [Compound 68, 2-(2-Chlorophenyl)-5-(pyridin-2-yl)-4,5,6,7-tetrahydrooxazolo[5,4-c]pyridine] and `Clc1ccc(-c2nc3c(o2)CN(c2ccccn2)CC3)cc1` [Compound 70, 2-(4-Chlorophenyl)-5-(pyridin-2-yl)-4,5,6,7-tetrahydrooxazolo[5,4-c]pyridine] cannot be ordered by IC50: less than 10000 nM for the first, less than 1000 nM for the second.

`N#Cc1cccnc1N1CCc2nc(-c3ccccc3Cl)oc2C1` [Compound 69, 2-(2-(2-Chlorophenyl)-6,7-dihydrooxazolo[5,4-c]pyridin-5(4H)-yl)nicotinonitrile] and `COc1cccc(-c2nc3c(o2)CN(c2ncccc2C#N)CC3)c1` [Compound 72, 2-(2-(3-Methoxyphenyl)-6,7-dihydrooxazolo[5,4-c]pyridin-5(4H)-yl)nicotinonitrile] cannot be ordered by IC50: less than 10000 nM for the first, less than 1000 nM for the second.

First: COc1cccc(-c2nc3c(o2)CN(c2ccccn2)CC3)c1 [Compound 71, 2-(3-Methoxyphenyl)-5-(pyridin-2-yl)-4,5,6,7-tetrahydrooxazolo[5,4-c]pyridine]
Second: N#Cc1cccc(-c2nc3c(o2)CN(c2ccccn2)C3)c1 [Compound 86, 3-(5-(Pyridin-2-yl)-5,6-dihydro-4H-pyrrolo[3,4-d]oxazol-2-yl)benzonitrile]
The IC50 of the first is lower: less than 10000 nM for the first, greater than 10000 nM for the second.

First: COc1cccc(-c2nc3c(o2)CCN(c2ncccc2C#N)C3)c1 [Compound 73, 2-(2-(3-Methoxyphenyl)-6,7-dihydrooxazolo[4,5-c]pyridin-5(4H)-yl)nicotinonitrile]
Second: N#Cc1cccc(-c2nc3c(o2)CN(c2ncccc2C#N)C3)c1 [Compound 87, 2-(2-(3-Cyanophenyl)-4H-pyrrolo[3,4-d]oxazol-5(6H)-yl)nicotinonitrile]
The IC50 of the first is higher: greater than 10000 nM for the first, less than 1000 nM for the second. The second is the more potent here.

`Cc1ccc(-c2nc3c(o2)CN(c2cccc(C#N)c2)CC3)nc1` [Compound 74, 3-(2-(5-Methylpyridin-2-yl)-6,7-dihydrooxazolo[5,4-c]pyridin-5(4H)-yl)benzonitrile] and `Cc1ccnc(-c2nc3c(o2)CN(c2cccc(C#N)c2)CC3)c1` [Compound 76, 3-(2-(4-Methylpyridin-2-yl)-6,7-dihydrooxazolo[5,4-c]pyridin-5(4H)-yl)benzonitrile] cannot be ordered by IC50: less than 10000 nM for the first, less than 10000 nM for the second.

Compared with `N#Cc1cccc(N2CCc3nc(-c4ccncc4)oc3C2)c1` [Compound 75, 3-(2-(Pyridin-4-yl)-6,7-dihydrooxazolo[5,4-c]pyridin-5(4H)-yl)benzonitrile], `N#Cc1cccc(N2CCc3oc(-c4ccncc4)nc3C2)c1` [Compound 78, 3-(2-(Pyridin-4-yl)-6,7-dihydrooxazolo[4,5-c]pyridin-5(4H)-yl)benzonitrile] is higher in IC50: less than 10000 nM for the first, greater than 10000 nM for the second.

Compared with `N#Cc1cccc(N2CCc3nc(-c4cccnc4)oc3C2)c1` [Compound 77, 3-(2-(Pyridin-3-yl)-6,7-dihydrooxazolo[5,4-c]pyridin-5(4H)-yl)benzonitrile], `N#Cc1cccc(N2CCCc3nc(-c4ccccn4)oc3C2)c1` [Compound 93, 3-(2-(Pyridin-2-yl)-7,8-dihydro-4H-oxazolo[5,4-c]azepin-5(6H)-yl)benzonitrile] is lower in IC50: greater than 10000 nM for the first, less than 1000 nM for the second. The second is the more potent here.

First: Cc1cc(-c2nc3c(o2)CCN(c2ccccn2)C3)on1 [Compound 79, 2-(3-Methylisoxazol-5-yl)-5-(pyridin-2-yl)-4,5,6,7-tetrahydrooxazolo[4,5-c]pyridine]
Second: Fc1cccc(N2CCCc3oc(-c4ccccn4)nc3C2)c1 [Compound 100, 5-(3-Fluorophenyl)-2-(pyridin-2-yl)-5,6,7,8-tetrahydro-4H-oxazolo[4,5-c]azepine]
The IC50 of the first is higher: greater than 10000 nM for the first, less than 1000 nM for the second.

`N#Cc1cc(F)cc(N2CCc3oc(-c4ncco4)nc3C2)c1` [Compound 80, 3-Fluoro-5-(2-(oxazol-2-yl)-6,7-dihydrooxazolo[4,5-c]pyridin-5(4H)-yl)benzonitrile] and `N#Cc1cc(F)cc(N2CCCc3oc(-c4ccccn4)nc3C2)c1` [Compound 98, 3-Fluoro-5-(2-(pyridin-2-yl)-7,8-dihydro-4H-oxazolo[4,5-c]azepin-5(6H)-yl)benzonitrile] cannot be ordered by IC50: less than 10000 nM for the first, less than 1000 nM for the second.

`CC1Cc2nc(-c3ccccn3)oc2CN1c1cc(F)cc(C#N)c1` (centres unmarked) [Compound 83, 3-Fluoro-5-(6-methyl-2-(pyridin-2-yl)-6,7-dihydrooxazolo[5,4-c]pyridin-5(4H)-yl)benzonitrile] and `N#Cc1cc(F)cc(N2CCCc3nc(-c4ccccn4)oc3C2)c1` [Compound 90, 3-Fluoro-5-(2-(pyridin-2-yl)-7,8-dihydro-4H-oxazolo[5,4-c]azepin-5(6H)-yl)benzonitrile] cannot be ordered by IC50: less than 1000 nM for the first, less than 1000 nM for the second.

`N#Cc1cccc(N2Cc3nc(-c4ccccn4)oc3C2)c1` [Compound 84, 3-(2-(Pyridin-2-yl)-4H-pyrrolo[3,4-d]oxazol-5(6H)-yl)benzonitrile] and `N#Cc1cccc(N2CCCc3oc(-c4ccccn4)nc3C2)c1` [Compound 99, 3-(2-(Pyridin-2-yl)-7,8-dihydro-4H-oxazolo[4,5-c]azepin-5(6H)-yl)benzonitrile] cannot be ordered by IC50: less than 1000 nM for the first, less than 1000 nM for the second.

`N#Cc1cccnc1N1Cc2nc(-c3ccccn3)oc2C1` [Compound 85, 2-(2-(Pyridin-2-yl)-4H-pyrrolo[3,4-d]oxazol-5(6H)-yl)pyridine-3-carbonitrile] and `COc1cc(C#N)cc(N2CCCc3nc(-c4ccccn4)oc3C2)c1` [Compound 91, 3-Methoxy-5-(2-(pyridin-2-yl)-7,8-dihydro-4H-oxazolo[5,4-c]azepin-5(6H)-yl)benzonitrile] cannot be ordered by IC50: less than 1000 nM for the first, less than 1000 nM for the second.

`N#Cc1cccc(N2CCc3nc(-c4ccccn4)oc3CC2)c1` [Compound 88, 3-(2-(Pyridin-2-yl)-7,8-dihydro-4H-oxazolo[5,4-d]azepin-6(5H)-yl)benzonitrile] and `N#Cc1cc(F)cc(N2CCc3nc(-c4ccccn4)oc3CC2)c1` [Compound 89, 3-Fluoro-5-(2-(pyridin-2-yl)-7,8-dihydro-4H-oxazolo[5,4-d]azepin-6(5H)-yl)benzonitrile] cannot be ordered by IC50: less than 1000 nM for the first, less than 1000 nM for the second.

`N#Cc1cccc(N2CCCc3nc(-c4ncccn4)oc3C2)c1` [Compound 92, 3-(2-(Pyrimidin-2-yl)-7,8-dihydro-4H-oxazolo[5,4-c]azepin-5(6H)-yl)benzonitrile] and `N#Cc1cccc(N2CCCc3nc(-c4ccc(F)cn4)oc3C2)c1` [Compound 97, 3-(2-(5-Fluoropyridin-2-yl)-7,8-dihydro-4H-oxazolo[5,4-c]azepin-5(6H)-yl)benzonitrile] cannot be ordered by IC50: less than 1000 nM for the first, less than 1000 nM for the second.

`N#Cc1cc(N2CCCc3nc(-c4ccccn4)oc3C2)cc(C(F)(F)F)c1` [Compound 94, 3-(2-(Pyridin-2-yl)-7,8-dihydro-4H-oxazolo[5,4-c]azepin-5(6H)-yl)-5-(trifluoromethyl)benzonitrile] and `FC(F)(F)c1cccc(N2CCCc3nc(-c4ccccn4)oc3C2)c1` [Compound 95, 2-(Pyridin-2-yl)-5-(3-(trifluoromethyl)phenyl)-5,6,7,8-tetrahydro-4H-oxazolo[5,4-c]azepine] cannot be ordered by IC50: less than 1000 nM for the first, less than 10000 nM for the second.

`N#Cc1cc(F)cc(N2CCCc3nc(-c4ccc(F)cn4)oc3C2)c1` [Compound 96, 3-Fluoro-5-(2-(5-fluoropyridin-2-yl)-7,8-dihydro-4H-oxazolo[5,4-c]azepin-5(6H)-yl)benzonitrile] and `Fc1cc(F)cc(N2CCCc3oc(-c4ccccn4)nc3C2)c1` [Compound 101, 5-(3,5-Difluorophenyl)-2-(pyridin-2-yl)-5,6,7,8-tetrahydro-4H-oxazolo[4,5-c]azepine] cannot be ordered by IC50: less than 1000 nM for the first, less than 1000 nM for the second.

From US20120029190A1, “COMPOUNDS FOR TREATING DISORDERS MEDIATED BY METABOTROPIC GLUTAMATE RECEPTOR 5, AND METHODS OF USE THEREOF” (priority 2009, published 2012)
